Measured values reported in ChEMBL document CHEMBL1149548, “Synthesis, SAR, and X-ray structure of novel potent DPPIV inhibitors: oxadiazolyl ketones” (Bioorg Med Chem Lett, 2007).

What was measured:
[1] = molecular target: Dipeptidyl peptidase 2 (Homo sapiens, UniProt Q9UHL4); assay: Inhibition of DPP2
[2] = Cmax in rat at 5 mg/kg, po; assay type: ADME, organism-based; set-up: dose 5 mg/kg, route oral; settings: in vivo
[3] = Cmax in monkey at 5 mg/kg, po; assay type: ADME, organism-based, Macaca mulatta; set-up: dose 5 mg/kg, route oral; settings: rhesus monkey, in vivo
[4] = Plasma clearance in rat at 5 mg/kg, iv or 5 mg/kg, po; assay type: ADME, organism-based
[5] = Plasma clearance in dog at 5 mg/kg, iv or 5 mg/kg, po; assay type: ADME, organism-based, Canis lupus familiaris
[6] = Plasma clearance in monkey at 5 mg/kg, iv or 5 mg/kg, po; assay type: ADME, organism-based, Macaca mulatta; settings: rhesus monkey
[7] = Volume of distribution at steady state in rat at 5 mg/kg, iv or 5 mg/kg, po; assay type: ADME, organism-based; settings: in vivo, read-out: Vdss
[8] = Volume of distribution at steady state in dog at 5 mg/kg, iv or 5 mg/kg, po; assay type: ADME, organism-based, Canis lupus familiaris; settings: in vivo, read-out: Vdss
[9] = Volume of distribution at steady state in monkey at 5 mg/kg, iv or 5 mg/kg, po; assay type: ADME, organism-based, Macaca mulatta; settings: rhesus monkey, in vivo, read-out: Vdss
[10] = Half life in rat at 5 mg/kg, po; assay type: ADME, organism-based; set-up: dose 5 mg/kg, route oral; settings: in vivo
[11] = Half life in dog at 5 mg/kg, po; assay type: ADME, organism-based, Canis lupus familiaris; set-up: dose 5 mg/kg, route oral; settings: in vivo
[12] = Half life in monkey at 5 mg/kg, po; assay type: ADME, organism-based, Macaca mulatta; set-up: dose 5 mg/kg, route oral; settings: rhesus monkey, in vivo
[13] = Bioavailability in rat at 5 mg/kg, po; assay type: ADME, organism-based; settings: in vivo
[14] = Bioavailability in dog at 5 mg/kg, po; assay type: ADME, organism-based, Canis lupus familiaris; settings: in vivo
[15] = Bioavailability in monkey at 5 mg/kg, po; assay type: ADME, organism-based, Macaca mulatta; settings: rhesus monkey, in vivo
[16] = system: Rattus norvegicus; assay: Inhibition of basal plasma DPP4 activity in Sprague-Dawley rat at 0.03 mg/kg after 1 hr; settings: read-out: Inhibition
[17] = system: Rattus norvegicus; assay: Inhibition of basal plasma DPP4 activity in Sprague-Dawley rat at 0.03 mg/kg after 24 hrs; settings: read-out: Inhibition
[18] = system: Rattus norvegicus; assay: Inhibition of basal plasma DPP4 activity in Sprague-Dawley rat at 0.1 mg/kg after 1 hr; settings: read-out: Inhibition
[19] = system: Rattus norvegicus; assay: Inhibition of basal plasma DPP4 activity in Sprague-Dawley rat at 0.1 mg/kg after 24 hrs; settings: read-out: Inhibition
[20] = system: Rattus norvegicus; assay: Inhibition of basal plasma DPP4 activity in Sprague-Dawley rat at 1 mg/kg after 1 hr; settings: read-out: Inhibition
[21] = system: Rattus norvegicus; assay: Inhibition of basal plasma DPP4 activity in Sprague-Dawley rat at 1 mg/kg after 24 hrs; settings: read-out: Inhibition
[22] = system: Rattus norvegicus; assay: Inhibition of basal plasma DPP4 activity in Sprague-Dawley rat at 10 mg/kg after 1 hr; settings: read-out: Inhibition
[23] = system: Rattus norvegicus; assay: Inhibition of basal plasma DPP4 activity in Sprague-Dawley rat at 10 mg/kg after 24 hrs; settings: read-out: Inhibition
[24] = molecular target: Dipeptidyl peptidase 8 (Homo sapiens, UniProt Q6V1X1); assay: Inhibition of DPP8
Chain of Dipeptidyl peptidase 8 (Q6V1X1 whole entry): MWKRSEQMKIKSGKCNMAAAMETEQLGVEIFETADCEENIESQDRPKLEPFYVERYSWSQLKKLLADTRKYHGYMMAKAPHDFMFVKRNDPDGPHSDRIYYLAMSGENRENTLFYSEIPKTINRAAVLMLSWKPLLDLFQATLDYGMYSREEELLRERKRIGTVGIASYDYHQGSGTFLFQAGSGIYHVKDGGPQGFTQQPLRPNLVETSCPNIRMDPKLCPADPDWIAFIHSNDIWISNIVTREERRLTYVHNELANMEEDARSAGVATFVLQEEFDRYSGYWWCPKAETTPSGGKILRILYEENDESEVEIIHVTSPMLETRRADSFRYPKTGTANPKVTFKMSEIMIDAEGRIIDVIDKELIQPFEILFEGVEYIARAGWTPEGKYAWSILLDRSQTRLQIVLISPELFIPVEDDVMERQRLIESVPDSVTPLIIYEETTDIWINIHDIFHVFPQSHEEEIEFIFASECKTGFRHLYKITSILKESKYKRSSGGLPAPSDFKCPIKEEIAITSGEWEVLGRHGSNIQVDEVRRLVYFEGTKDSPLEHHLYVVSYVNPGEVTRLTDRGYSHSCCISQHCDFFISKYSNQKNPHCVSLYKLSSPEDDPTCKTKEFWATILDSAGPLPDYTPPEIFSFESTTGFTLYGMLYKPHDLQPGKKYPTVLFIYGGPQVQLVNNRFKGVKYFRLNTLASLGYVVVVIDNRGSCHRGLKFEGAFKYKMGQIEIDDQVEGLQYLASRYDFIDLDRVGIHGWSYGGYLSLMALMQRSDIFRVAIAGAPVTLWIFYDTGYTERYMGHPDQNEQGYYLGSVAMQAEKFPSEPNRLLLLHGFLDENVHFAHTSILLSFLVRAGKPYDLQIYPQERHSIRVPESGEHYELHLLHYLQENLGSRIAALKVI

Compound: CC(C)(CO)NCC(=O)N1C[C@@H](F)C[C@H]1C(=O)c1nnc(C(C)(C)C)o1
- IC50 [1]: 146000 nM
- Cmax [2]: 30 ng/mL
- Cmax [3]: 210 ng/mL
- clearance [4]: 241 mL/min/kg
- clearance [5]: 71 mL/min/kg
- clearance [6]: 18 mL/min/kg
- Vd [7]: 14 L/kg
- Vd [8]: 4.87 L/kg
- Vd [9]: 2.42 L/kg
- half-life [10]: 4.15 h
- half-life [11]: 1.47 h
- half-life [12]: 4.63 h
- bioavailability [13]: 39%
- bioavailability [14]: 87%
- bioavailability [15]: 35%
- inhibition in vivo at 0.03 mg/kg [16]: 66%
- inhibition in vivo at 0.03 mg/kg [17]: 76%
- inhibition in vivo at 0.1 mg/kg [18]: 82%
- inhibition in vivo at 0.1 mg/kg [19]: 82%
- inhibition in vivo at 1 mg/kg [20]: 46%
- inhibition in vivo at 1 mg/kg [21]: 50%
- inhibition in vivo at 10 mg/kg [22]: 68%
- inhibition in vivo at 10 mg/kg [23]: 74%

Compound: Cc1cc(C)c(-c2nnc(C(=O)[C@@H]3CCCN3C(=O)CNC(C)(C)C)o2)c(C)c1
- IC50 [1]: < 390 nM
- IC50 [24]: < 390 nM

Compound: CC(C)(C)NCC(=O)N1CCC[C@H]1C(=O)c1nnc(C2(C)CCCCC2)o1
- IC50 [1]: 8660 nM
- IC50 [24]: < 390 nM

Compound: CC(C)(C)NCC(=O)N1CCC[C@H]1C(=O)c1noc(C2(C)CCCCC2)n1
- IC50 [1]: < 390 nM
- IC50 [24]: < 390 nM

Compound: CC(C)(C)NCC(=O)N1C[C@@H](F)C[C@H]1C(=O)c1nnc(C2CCCCC2)o1
- IC50 [1]: < 390 nM
- IC50 [24]: < 390 nM

Compound: CC(C)(C)NCC(=O)N1CCC[C@H]1C(=O)c1nnc(C(C)(C)C)o1
- IC50 [1]: > 10000 nM

Compound: CCC(C)(C)c1nnc(C(=O)[C@@H]2C[C@H](F)CN2C(=O)CNC(C)(C)C)o1
- IC50 [1]: 97200 nM
- IC50 [24]: < 390 nM

Compound: CC(C)(C)NCC(=O)N1CCC[C@H]1C(=O)c1noc(-c2ccc(F)cc2)n1
- IC50 [1]: < 390 nM
- IC50 [24]: < 390 nM
